Data reported in ChEMBL document CHEMBL5131555, “Antibacterial Nanoassembled Calix[4]arene Exposing Choline Units Inhibits Biofilm and Motility of Gram Negative Bacteria” (2022).
Activity calls are given as the source filed them. The calls are words filed in the database; no cut-off is given here.

Assays:
Escherichia coli [1] = assay: Antibiofilm activity against Escherichia coli ATCC 10536 assessed as inhibition of biofilm formation at 1/2 times of MIC measured after 24 hrs by safranin staining based light microscopy; format: functional, organism-based
Escherichia coli [2] = assay: Bactericidal activity against Escherichia coli ATCC 10536 assessed as bacterial growth inhibition measured after 24 to 48 hrs by CLSI based microdilution method; format: functional; settings: time 24-48 hrs
Pseudomonas aeruginosa [3] = assay: Effect on twitching capacity of Pseudomonas aeruginosa ATCC 9027 assessed as reduction of motility zone at 1/2 times of MIC incubated for 24 hrs; format: functional; set-up: scale not given: the % may be the effect or the level left
Escherichia coli [4] = assay: Bactericidal activity against Escherichia coli ATCC 10536 assessed as planktonic growth inhibition at 1/8 times of MIC measured after 24 hrs by spectrophotometer EIA reader analysis; format: functional
Escherichia coli [5] = assay: Antibiofilm activity against Escherichia coli ATCC 10536 assessed as reduction in preformed bacterial biofilm at 150 microg/ml measured after 24 hrs by safranin staining based spectrophotometer EIA reader analysis; format: functional; set-up: scale not given: the % may be the effect or the level left; settings: dose 150 µg/ml
Pseudomonas aeruginosa [6] = assay: Antibacterial activity against Pseudomonas aeruginosa DSM 102273 assessed as bacterial growth inhibition measured after 24 hrs by CLSI based microdilution method; format: functional
Escherichia coli [7] = assay: Antibiofilm activity against Escherichia coli ATCC 10536 assessed as inhibition of biofilm biomass at 1/4 times of MIC measured after 24 hrs by safranin staining based spectrophotometer EIA reader analysis; format: functional
Escherichia coli [8] = assay: Effect on swarming capacity of Escherichia coli ATCC 10536 assessed as reduction of motility zone at 1/2 times of MIC incubated for 24 hrs; format: functional; set-up: scale not given: the % may be the effect or the level left
Cell membrane [9] = assay: Induction of outer membrane permeabilization in Pseudomonas aeruginosa ATCC 9027 assessed as crystal violet uptake at MIC incubated for 60 mins by crystal violet staining based UV-VIS spectrophotometer ( Rvb = 53%)
Pseudomonas aeruginosa [10] = assay: Antibiofilm activity against ofloxacin resistant Pseudomonas aeruginosa 1 ocular isolate assessed as inhibition of biofilm biomass at 1/2 times of MIC measured after 24 hrs by safranin staining based spectrophotometer EIA reader analysis; format: functional
Escherichia coli [11] = assay: Bactericidal activity against Escherichia coli ATCC 10536 assessed as planktonic growth inhibition at 1/4 times of MIC measured after 24 hrs by spectrophotometer EIA reader analysis; format: functional
Escherichia coli [12] = assay: Antibiofilm activity against Escherichia coli ATCC 10536 assessed as inhibition of biofilm biomass at 1/2 times of MIC measured after 24 hrs by safranin staining based spectrophotometer EIA reader analysis; format: functional
Pseudomonas aeruginosa [13] = assay: Effect on swarming capacity of Pseudomonas aeruginosa ATCC 9027 assessed as reduction of motility zone at 1/2 times of MIC incubated for 24 hrs; format: functional; set-up: scale not given: the % may be the effect or the level left
Pseudomonas aeruginosa [14] = assay: Antibiofilm activity against Pseudomonas aeruginosa ATCC 9027 assessed as reduction in preformed bacterial biofilm at 18.8 microg/ml measured after 24 hrs by safranin staining based spectrophotometer EIA reader analysis; format: functional; set-up: scale not given: the % may be the effect or the level left; settings: dose 18.8 µg/ml
Pseudomonas aeruginosa [15] = assay: Antibacterial activity against ofloxacin resistant Pseudomonas aeruginosa 1 ocular isolate assessed as bacterial growth inhibition measured after 24 hrs by CLSI based microdilution method; format: functional
Pseudomonas aeruginosa [16] = assay: Antibiofilm activity against Pseudomonas aeruginosa ATCC 9027 assessed as inhibition of biofilm biomass at 1/2 times of MIC measured after 24 hrs by safranin staining based spectrophotometer EIA reader analysis; format: functional
Pseudomonas aeruginosa [17] = assay: Antibacterial activity against Pseudomonas aeruginosa ATCC 9027 assessed as bacterial growth inhibition measured after 24 hrs by CLSI based microdilution method; format: functional
Pseudomonas aeruginosa [18] = assay: Bactericidal activity against Pseudomonas aeruginosa DSM 102273 assessed as bacterial growth inhibition measured after 24 to 48 hrs by CLSI based microdilution method; format: functional; settings: time 24-48 hrs
Escherichia coli [19] = assay: Antibiofilm activity against Escherichia coli ATCC 10536 assessed as formation of looser colonies at 1/2 times of MIC measured after 24 hrs by safranin staining based light microscopy; format: functional, organism-based
Cell membrane [20] = assay: Induction of outer membrane permeabilization in Escherichia coli ATCC 10536 assessed as crystal violet uptake at MIC incubated for 60 mins by crystal violet staining based UV-VIS spectrophotometer ( Rvb = 56%)
Pseudomonas aeruginosa [21] = assay: Antibiofilm activity against Pseudomonas aeruginosa ATCC 9027 assessed as reduction in preformed bacterial biofilm at 37.6 microg/ml measured after 24 hrs by safranin staining based spectrophotometer EIA reader analysis; format: functional; set-up: scale not given: the % may be the effect or the level left; settings: dose 37.6 µg/ml
Escherichia coli [22] = assay: Antibacterial activity against Escherichia coli ATCC 10536 assessed as bacterial growth inhibition measured after 24 hrs by CLSI based microdilution method; format: functional
Escherichia coli [23] = assay: Effect on twitching capacity of Escherichia coli ATCC 10536 assessed as reduction of motility zone at 1/2 times of MIC incubated for 24 hrs; format: functional; set-up: scale not given: the % may be the effect or the level left
Escherichia coli [24] = assay: Antibiofilm activity against Escherichia coli ATCC 10536 assessed as formation of looser colonies at 1/4 times of MIC measured after 24 hrs by safranin staining based light microscopy; format: functional, organism-based
Escherichia coli [25] = assay: Antibiofilm activity against Escherichia coli ATCC 10536 assessed as inhibition of biofilm biomass at 1/8 times of MIC measured after 24 hrs by safranin staining based spectrophotometer EIA reader analysis; format: functional
Pseudomonas aeruginosa [26] = assay: Bactericidal activity against ofloxacin resistant Pseudomonas aeruginosa 1 ocular isolate assessed as bacterial growth inhibition measured after 24 to 48 hrs by CLSI based microdilution method; format: functional; settings: time 24-48 hrs
Escherichia coli [27] = assay: Antibiofilm activity against Escherichia coli ATCC 10536 assessed as inhibition of biofilm formation at 1/4 times of MIC measured after 24 hrs by safranin staining based light microscopy; format: functional, organism-based
Pseudomonas aeruginosa [28] = assay: Bactericidal activity against Pseudomonas aeruginosa ATCC 9027 assessed as bacterial growth inhibition measured after 24 to 48 hrs by CLSI based microdilution method; format: functional; settings: time 24-48 hrs
Pseudomonas aeruginosa [29] = assay: Antibiofilm activity against Pseudomonas aeruginosa ATCC 9027 assessed as reduction in preformed bacterial biofilm at 75 microg/ml measured after 24 hrs by safranin staining based spectrophotometer EIA reader analysis; format: functional; set-up: scale not given: the % may be the effect or the level left; settings: dose 75 µg/ml
Pseudomonas aeruginosa [30] = assay: Effect on twitching capacity of ofloxacin resistant Pseudomonas aeruginosa 1 ocular isolate assessed as reduction of motility zone at 1/2 times of MIC incubated for 24 hrs; format: functional; set-up: scale not given: the % may be the effect or the level left

CCCCCCCCCCCCOc1c2cc(C[N+](C)(C)CCO)cc1Cc1cc(C[N+](C)(C)CCO)cc(c1OCCCCCCCCCCCC)Cc1cc(C[N+](C)(C)CCO)cc(c1OCCCCCCCCCCCC)Cc1cc(C[N+](C)(C)CCO)cc(c1OCCCCCCCCCCCC)C2.[Cl-].[Cl-].[Cl-].[Cl-]
Activity (Escherichia coli [1]): Active | MBC (Escherichia coli [2]): 18.8 µg/mL | Activity (Pseudomonas aeruginosa [3]): 50% | inhibition (INH) (Escherichia coli [4]): 1.8% | Activity (Escherichia coli [5]): 66.5% | MIC (Pseudomonas aeruginosa [6]): 18.8 µg/mL | inhibition (INH) (Escherichia coli [7]): 77.6% | Activity (Escherichia coli [8]): 50% | Activity (Cell membrane [9]): 71.6% | inhibition (INH) (Pseudomonas aeruginosa [10]): 40% | inhibition (INH) (Escherichia coli [11]): 14.5% | inhibition (INH) (Escherichia coli [12]): 90.4% | Activity (Pseudomonas aeruginosa [13]): 50% | Activity (Pseudomonas aeruginosa [14]): 37% | MIC (Pseudomonas aeruginosa [15]): 9.4 µg/mL | inhibition (INH) (Pseudomonas aeruginosa [16]): 40% | MIC (Pseudomonas aeruginosa [17]): 9.4 µg/mL | MBC (Pseudomonas aeruginosa [18]): 18.8 µg/mL | Activity (Escherichia coli [19]): Active | Activity (Cell membrane [20]): 78.8% | Activity (Pseudomonas aeruginosa [21]): 37% | MIC (Escherichia coli [22]): 18.8 µg/mL | Activity (Escherichia coli [23]): 50% | Activity (Escherichia coli [24]): Active | inhibition (INH) (Escherichia coli [25]): 51% | MBC (Pseudomonas aeruginosa [26]): 18.8 µg/mL | Activity (Escherichia coli [27]): Active | MBC (Pseudomonas aeruginosa [28]): 18.8 µg/mL | Activity (Pseudomonas aeruginosa [29]): 58% | Activity (Pseudomonas aeruginosa [30]): 50%
